In patent publication US9521846B2, “Template-fixed peptidomimetics with antimicrobial activity” (priority 2006, dated 2016):
≈ marks a conversion by molar mass, not a printed value. Non-standard residues stand in square brackets, D forms with d. Residues, ends and D or L forms follow the SMILES beside them. Chg = N[C@H](C(=O)O)C1CCCCC1; Nle = CCCC[C@H](N)C(=O)O; Dab = NCC[C@H](N)C(=O)O; Nva = CCC[C@H](N)C(=O)O; Aib = CC(C)(N)C(=O)O

Key:
P. aeruginosa ATCC 27853 = format: cell-based, Pseudomonas aeruginosa; conditions: ATCC 27853
Procedure: (§1) The selective antimicrobial activities of the peptides were determined in 96-well plates (Nunclon polystyrene) by the standard NCCLS broth microdilution method (see ref 1, below) with slight modifications. Innocula of the microorganisms were diluted into Mueller-Hinton (MH) broth+0.02% BSA and compared with a 0.5 Mcfarland standard to give appr. 10^6 colony forming units (CFU)/ml. Aliquots (50 μl) of inoculate were added to 50 μl of MH broth+0.02% BSA containing the peptide in serial two-fold dilutions. The following microorganisms were used to determine antibiotic selectivity of the peptides: Escherichia coli (ATCC 25922), Pseudomonas aeruginosa (P. aeruginosa ATCC 27853, P8191900, P1021903, P1021913, IMP 1 Livermore 3140).

[1] = tested on: Pseudomonas aeruginosa IMP 1 Livermore 3140; format: cell-based; conditions: IMP 1 Livermore 3140
Procedure: as §1

[2] = tested on: Pseudomonas aeruginosa P1021903; format: cell-based; conditions: P1021903
Procedure: as §1

[3] = tested on: Pseudomonas aeruginosa P1021913; format: cell-based; conditions: P1021913
Procedure: as §1

[4] = tested on: Pseudomonas aeruginosa P8191900; format: cell-based; conditions: P8191900
Procedure: as §1

HELA cells (Acc57) = experiment: Cytotoxicity assay, MTT reduction (LC 50, GI 50); format: cell-based
Procedure: The cytotoxicity of the peptides to HELA cells (Acc57) and COS-7 cells (CRL-1651) was determined using the MIT reduction assay [see ref. 2 and 3, below]. Briefly the method was as follows: HELA cells and COS-7 cells were seeded at 7.0×10^3 and, respectively, 4.5×10^3 cells per well and grown in 96-well […] plates for 24 hours at 37° C. at 5% CO2. At this point, time zero (Tz) was determined by MTT reduction (see below). The supernatant of the remaining wells was discarded, and fresh medium and the peptides in serial dilutions of 12.5, 25 and 50 μM were dispensed into the wells. Each peptide concentration was assayed in triplicate. Incubation of the cells was continued for 48 hours at 37° C. at 5% CO2. Wells were then washed once with phosphate buffered saline (PBS) and subsequently 100 μl MIT reagent (0.5 mg/ml in medium RPMI1640 and, respectively, DMEM) were added to the wells. This was incubated at 37° C. for 2 hours and subsequently the medium was aspirated and 100 μl isopropanol were added to each well. The absorbance at 595 nm of the solubilized product was measured (OD595peptide). For each concentration averages were calculated from triplicates. The percentage of growth was calculated as follows: (OD595peptide-OD595Tz-OD595Empty well)/(OD595Tz-OD595Empty well)×100% and was plotted for each peptide concentration.
The LC 50 values (Lethal Concentration, defined as the concentration that kills 50% of the cells) were determined for each peptide by using the trend line function of EXCEL (Microsoft Office 2000) for the concentrations (50, 25, 12.5 and 0 μM), the corresponding growth percentages and the value −50, (=TREND(C50:C0,%50:%0,−50)). The GI 50 (Growth Inhibition) concentrations were calculated for each peptide by using a trend line function for the concentrations (50, 25, 12.5 and 0 […]), the corresponding percentages and the value 50, (=TREND (C50:C0,%50:%0,50).

[5] = tested on: human red blood cells (hRBC); experiment: Hemolysis; format: cell-based; conditions: 100
Procedure: Hemolysis of red blood cells is often employed for assessment of toxicity of related compounds such as protegrin or tachyplesin. Values are given as %-lysis of red blood cells observed at a concentration of 100 μg/ml. Typical values determined for cationic peptides such as protegrin and tachyplesin range between 30-40% with average MIC-values of 1-5 μg/ml over a wide range of pathogens.
The peptides were tested for their hemolytic activity against human red blood cells (hRBC). Fresh hRBC were washed three times with phosphate buffered saline (PBS) by centrifugation for 10 min at 2000×g. Peptides at a concentration of 100 μM were incubated with 20% v/v hRBC for 1 hour at 37° C. The final erythrocyte concentration was approximately 0.9×10^9 cells per ml. A value of 0% and, respectively, 100% cell lysis was determined by incubation of the hRBC in the presence of PBS alone and, respectively, 0.1% Triton X-100 in H2O. The samples were centrifuged, the supernatant was 20-fold diluted in PBS buffer and the optical density (OD) of the sample at […] was measured. The 100% lysis value (OD540H20) gave an OD540 of approximately 1.3-1.8. Percent hemolysis was calculated as follows: (OD540peptide/OD540H20)×100%.

SMILES	MIC P. aeruginosa ATCC 27853 (P. aeruginosa ATCC 27853) [µg/mL]	MIC P. aeruginosa IMP1 Livermore 3140 [1] [µg/mL]	MIC P. aeruginosa P1021903 [2] [µg/mL]	MIC P. aeruginosa P1021913 [3] [µg/mL]	MIC P. aeruginosa P8191900 [4] [µg/mL]	Cytotoxicity GI50 Hela cells (HELA cells (Acc57)) [µM]	Hemolysis at 100 μg/ml [5] [%]	Average MIC (P. aeruginosa) [µg/mL]
CC[C@H](C)[C@@H]1NC(=O)[C@H](Cc2c[nH]c3ccccc23)NC(=O)[C@H]([C@@H](C)O)NC(=O)[C@@H]2CCCN2C(=O)[C@H]2CCCN2C(=O)[C@H](CCN)NC(=O)[C@@H](C)NC(=O)[C@H](CCN)NC(=O)[C@H](CCN)NC(=O)[C@H](Cc2c[nH]c3ccccc23)NC(=O)[C@H](CCN)NC(=O)[C@H](CCN)NC(=O)[C@H](CCCCN)NC(=O)[C@H](CCN)NC1=O [Example 3] (cyclo(TWI[Dab]K[Dab][Dab]W[Dab][Dab][dA][Dab][dP]P))	0.09 (≈ 0.0569 µM)	2.0 (≈ 1.27 µM)	0.30 (≈ 0.19 µM)	0.31 (≈ 0.196 µM)	0.30 (≈ 0.19 µM)	34	0.6	0.6
CC[C@H](C)[C@@H]1NC(=O)[C@H](Cc2c[nH]c3ccccc23)NC(=O)[C@H]([C@@H](C)O)NC(=O)[C@@H]2CCCN2C(=O)[C@H]2CCCN2C(=O)[C@H](CCN)NC(=O)[C@@H](C(C)C)NC(=O)[C@H](CCN)NC(=O)[C@H](CCN)NC(=O)[C@H](Cc2c[nH]c3ccccc23)NC(=O)[C@H](CCN)NC(=O)[C@H](CCN)NC(=O)[C@H](CCCCN)NC(=O)[C@H](CCN)NC1=O [Example 4] (cyclo(TWI[Dab]K[Dab][Dab]W[Dab][Dab][dV][Dab][dP]P))	0.75 (≈ 0.466 µM)	>2.0	1.50 (≈ 0.932 µM)	2.50 (≈ 1.55 µM)	1.50 (≈ 0.932 µM)	40	0.6	>1
CC[C@H](C)[C@@H]1NC(=O)[C@H](Cc2c[nH]c3ccccc23)NC(=O)[C@H]([C@@H](C)O)NC(=O)[C@@H]2CCCN2C(=O)[C@H]2CCCN2C(=O)[C@H](CCN)NC(=O)C(C)(C)NC(=O)[C@H](CCN)NC(=O)[C@H](CCN)NC(=O)[C@H](Cc2c[nH]c3ccccc23)NC(=O)[C@H](CCN)NC(=O)[C@H](CCN)NC(=O)[C@H](CCCCN)NC(=O)[C@H](CCN)NC1=O [Example 5] (cyclo(TWI[Dab]K[Dab][Dab]W[Dab][Dab][Aib][Dab][dP]P))	0.08 (≈ 0.0502 µM)	0.75 (≈ 0.47 µM)	0.21 (≈ 0.132 µM)	0.21 (≈ 0.132 µM)	0.30 (≈ 0.188 µM)	50	0.6	0.31
CC[C@H](C)[C@@H]1NC(=O)[C@H](Cc2c[nH]c3ccccc23)NC(=O)[C@H]([C@@H](C)O)NC(=O)[C@@H]2CCCN2C(=O)[C@H]2CCCN2C(=O)[C@H](CCN)NC(=O)[C@H](CC(C)C)NC(=O)[C@H](CCN)NC(=O)[C@H](CCN)NC(=O)[C@H](Cc2c[nH]c3ccccc23)NC(=O)[C@H](CCN)NC(=O)[C@H](CCN)NC(=O)[C@H](CCCCN)NC(=O)[C@H](CCN)NC1=O [Example 7] (cyclo(TWI[Dab]K[Dab][Dab]W[Dab][Dab]L[Dab][dP]P))	0.13 (≈ 0.0801 µM)	>2	1.50 (≈ 0.924 µM)	0.65 (≈ 0.4 µM)	0.50 (≈ 0.308 µM)	13	0.8	>1
CC[C@H](C)[C@@H]1NC(=O)[C@H](Cc2c[nH]c3ccccc23)NC(=O)[C@H]([C@@H](C)O)NC(=O)[C@@H]2CCCN2C(=O)[C@H]2CCCN2C(=O)[C@H](CCN)NC(=O)[C@H]([C@@H](C)CC)NC(=O)[C@H](CCN)NC(=O)[C@H](CCN)NC(=O)[C@H](Cc2c[nH]c3ccccc23)NC(=O)[C@H](CCN)NC(=O)[C@H](CCN)NC(=O)[C@H](CCCCN)NC(=O)[C@H](CCN)NC1=O [Example 8] (cyclo(TWI[Dab]K[Dab][Dab]W[Dab][Dab]I[Dab][dP]P))	0.05 (≈ 0.0308 µM)	0.43 (≈ 0.265 µM)	0.18 (≈ 0.111 µM)	0.31 (≈ 0.191 µM)	0.18 (≈ 0.111 µM)	50	0	0.23
CCCC[C@@H]1NC(=O)[C@H](CCN)NC(=O)[C@H](CCN)NC(=O)[C@H](Cc2c[nH]c3ccccc23)NC(=O)[C@H](CCN)NC(=O)[C@H](CCN)NC(=O)[C@H](CCCCN)NC(=O)[C@H](CCN)NC(=O)[C@H]([C@@H](C)CC)NC(=O)[C@H](Cc2c[nH]c3ccccc23)NC(=O)[C@H]([C@@H](C)O)NC(=O)[C@@H]2CCCN2C(=O)[C@H]2CCCN2C(=O)[C@H](CCN)NC1=O [Example 9] (cyclo(TWI[Dab]K[Dab][Dab]W[Dab][Dab][Nle][Dab][dP]P))	0.21 (≈ 0.129 µM)	>2	1.50 (≈ 0.924 µM)	0.75 (≈ 0.462 µM)	0.75 (≈ 0.462 µM)	50	0.7	>1
CCC[C@@H]1NC(=O)[C@H](CCN)NC(=O)[C@H](CCN)NC(=O)[C@H](Cc2c[nH]c3ccccc23)NC(=O)[C@H](CCN)NC(=O)[C@H](CCN)NC(=O)[C@H](CCCCN)NC(=O)[C@H](CCN)NC(=O)[C@H]([C@@H](C)CC)NC(=O)[C@H](Cc2c[nH]c3ccccc23)NC(=O)[C@H]([C@@H](C)O)NC(=O)[C@@H]2CCCN2C(=O)[C@H]2CCCN2C(=O)[C@H](CCN)NC1=O [Example 10] (cyclo(TWI[Dab]K[Dab][Dab]W[Dab][Dab][Nva][Dab][dP]P))	0.05 (≈ 0.0311 µM)	0.43 (≈ 0.267 µM)	0.13 (≈ 0.0808 µM)	0.37 (≈ 0.23 µM)	0.18 (≈ 0.112 µM)	50	0	0.23
CC[C@H](C)[C@@H]1NC(=O)[C@H](Cc2c[nH]c3ccccc23)NC(=O)[C@H]([C@@H](C)O)NC(=O)[C@@H]2CCCN2C(=O)[C@H]2CCCN2C(=O)[C@H](CCN)NC(=O)[C@H](C2CCCCC2)NC(=O)[C@H](CCN)NC(=O)[C@H](CCN)NC(=O)[C@H](Cc2c[nH]c3ccccc23)NC(=O)[C@H](CCN)NC(=O)[C@H](CCN)NC(=O)[C@H](CCCCN)NC(=O)[C@H](CCN)NC1=O [Example 11] (cyclo(TWI[Dab]K[Dab][Dab]W[Dab][Dab][Chg][Dab][dP]P))	0.30 (≈ 0.182 µM)	>2	2.00 (≈ 1.21 µM)	0.75 (≈ 0.455 µM)	1.00 (≈ 0.606 µM)	50	0.5	>1
